# Experimental data reported in patent US20220372585A1, “Sensors for Aromatic Compounds and Methods of Making and Using Same” (Washington University, priority 2021, published 2022).
# Read-outs that look alike come from different tables or passages of the source.
# Tests used:
# [1] = target: T1, TrpR variant O1 (Escherichia coli, UniProt P0A881, A80R/G78N/I79W/K72S/T83K); test: TrpR O1 variant with synthetic Ptrp promoter, repression of GFP expression; format: cell-based, E. coli
# T1 construct: trpR (O1); expressed in transfected cells; host or cells: E. coli Nissle 1917 (EcN), genomic trpR knocked out; plasmid pMBA173 (P17-trpR(O1))
# From the text: (§1) Among the various aspects of the present disclosure is the provision of systems and methods for detecting aromatic compounds. An aspect of the present disclosure provides for a method of protein engineering (e.g., a regulator protein) comprising: mutagenizing specific amino acids in and around a ligand-binding site of a protein, wherein the mutagenizing enables changes in ligand-protein binding specificity while maintaining protein-DNA interaction and thus downstream gene expression control; and/or linking ligand-protein binding to output response. An aspect of the present disclosure provides for an engineered molecular sensor. […] In some embodiments, the engineered regulator protein or the ligand-protein binding site or a sequence encoding the engineered regulator protein or the ligand-protein binding site of the engineered regulator protein is at least about 80% identical to a WT regulator protein or a WT regulator ligand-protein binding site; or a sequence encoding the engineered regulator protein or ligand binding site thereof is at least about 80% identical to a sequence encoding the WT regulator protein or the WT regulator ligand-protein binding site; or functional fragment thereof, the engineered regulator protein having ligand binding activity. […]
# [2] = target: T2, TrpR variant OD (Escherichia coli, UniProt P0A881, A80L/G78C/I79C/K72S/T83R); test: TrpR OD variant with synthetic Ptrp promoter, repression of GFP expression; format: cell-based, E. coli
# T2 construct: trpR (OD); expressed in transfected cells; host or cells: E. coli Nissle 1917 (EcN), genomic trpR knocked out; plasmid pMBA103 (P17-trpR(OD))
# From the text: as §1
# [3] = target: T3, WT TrpR (Escherichia coli, UniProt P0A881); test: WT TrpR system, repression of GFP expression; format: cell-based, E. coli
# T3 construct: trpR (WT); expressed in transfected cells; host or cells: E. coli Nissle 1917 (EcN), genomic trpR knocked out; plasmid pMBA035 (P17-trpR)
# From the text: Among the various aspects of the present disclosure is the provision of systems and methods for detecting aromatic compounds. An aspect of the present disclosure provides for a method of protein engineering (e.g., a regulator protein) comprising: mutagenizing specific amino acids in and around a ligand-binding site of a protein, wherein the mutagenizing enables changes in ligand-protein binding specificity while maintaining protein-DNA interaction and thus downstream gene expression control; and/or linking ligand-protein binding to output response. An aspect of the present disclosure provides for an engineered molecular sensor. […] In some embodiments, the engineered regulator protein or the ligand-protein binding site or a sequence encoding the engineered regulator protein or the ligand-protein binding site of the engineered regulator protein is at least about 80% identical to a WT regulator protein or a WT regulator ligand-protein binding site; or a sequence encoding the engineered regulator protein or ligand binding site thereof is at least about 80% identical to a sequence encoding the WT regulator protein or the WT regulator ligand-protein binding site; or functional fragment thereof, the engineered regulator protein having ligand binding activity. In some embodiments, the engineered molecular sensor is optionally genomically integrated into a microorganism, optionally selected from a probiotic or is a purified cell-free sensor. In some embodiments, the engineered regulator protein or enzyme is an engineered TrpR, TyrR, TynA, or FeaR protein. […] In some embodiments, the engineered regulator protein is an engineered TrpR and is a tryptophan (Trp)-, 5-hydroxytryptophan (5-HTP)-, or tryptamine (Trpta)-specific sensor. In some embodiments, the engineered regulator protein or enzyme is an engineered TrpR, TyrR, TynA, or FeaR, and/or wherein the engineered TrpR, TyrR, TynA, or FeaR comprises at least one mutation to a ligand-protein binding site having specific amino acid binding activity. […]
# [4] = Sauerkraut, safe limit; cited from earlier work
# [5] = test system: TynA-KP with FeaR-KA I109N; test: GFP fluorescence from PtynA-MG with TynA-KP and FeaR-KA I109N; format: cell-based, Klebsiella aerogenes
# From the text: FIG. 32. […] Sensor system with PtynA-MG, TynA-KP and FeaR-KA was chosen as the wild type (WT) for further directed evolution. TynA-KP was employed to reduce the possible interference from DA during evolution processes. Values and error bars are the average and standard deviation of biological triplicate, respectively.
# FIG. 33A-FIG. 33B. […] The expression of PtynA-MG was regulated by the TynA-KP with FeaR-KA I109N mutant. Points represent experimental data while lines represent the fitted curves. […] Values and error bars are the average and standard deviation of biological triplicate, respectively.
# [6] = test system: TynA-FeaR system; test: microbe, parasite or virus in culture; settings: for EC50: Escherichia coli, read-out: KA (half maximal constant)
# Protocol: To develop sensors for aromatic amines, the TynA-FeaR system was first characterized in EcN. A sensor plasmid was constructed, which consisted of constitutively expressed TynA and FeaR from E. coli MG1655, and a reporter plasmid, which consisted of GFP under the control of PtynA (see e.g., FIG. 3B). […] Next, the sensitivity and selectivity to different ligands was characterized.
# For fluorescence-based quantification, single colonies were transferred to 5 mL LB medium (VWR, Radnor, Pa., USA) in 14 mL round bottom tubes and incubated overnight at 250 rpm and 37° C. Unless otherwise specified, experimental cultures were prepared by diluting overnight cultures 100× into 0.6 mL M9 minimal medium supplemented with 1 mM MgSO4, […]), and 2% w/v glycerol as well as the respective ligands (DA, PEA, Tyra, and Trypta) in 2 mL 96-deep well plates. Cultures were grown for 24 h at 37° C. and 250 rpm. After 5 h and 24 h of incubation, samples were obtained from the cultures for flow cytometry analysis.
# Flow cytometry was performed as previously described. Culture samples were collected and diluted to a final OD600 of ˜0.005-0.01 in […] filtered phosphate-buffered saline supplemented with 2 mg/ml kanamycin in 96-well assay microplates (U-bottom, REF-353910 from BD Biosciences, San Jose, Calif., USA). The fluorescence of the samples was measured using a Millipore Guava EasyCyte High Throughput flow cytometer with a 488 nm excitation laser and 512/18 nm emission filter. Cytometry data was gated by forward and side scatter. FlowJo (TreeStar Inc.) was used to obtain the arithmetic mean of the fluorescence distribution. The averages of the arithmetic means were calculated from three biological replicates. The average fluorescence of the non-fluorescent wild-type cell was subtracted from each sample to obtain the final fluorescence (au) values (Equation 2). To obtain the relative fluorescence in FIG. 6A-FIG. 6C, fluorescence values for each variant were normalized to the fluorescence of the wild-type sensor using Equation 3.
# The Hill equation (Equations 4 and 5) was used to fit lines to the fluorescence data. The model was fit to the experimentally collected data by minimizing the root mean square error (RMSE; Equation 6).
# [7] = test system: G494S TynA and A81S FeaR; format: cell-based, E. coli MG1655; settings: G494S TynA and A81S FeaR; 5 h and 24 h; FIG. 23A-B
# Protocol: (§2) Flow cytometry was performed as previously described. […] Cytometry data was gated by forward and side scatter.
# [8] = test system: wild-type TynA with M83Q FeaR; format: cell-based, E. coli MG1655; settings: 24 h, FIG. 28A
# Protocol: as §2
# [9] = test system: wild-type TynA with W110S FeaR; format: cell-based, E. coli MG1655; settings: 24 h, FIG. 28C
# Protocol: as §2
# [10] = test system: wild-type TynA with L108T FeaR; format: cell-based, E. coli MG1655; settings: 24 h, FIG. 28B
# Protocol: as §2
# [11] = test system: G494S TynA with A81T FeaR; format: cell-based, E. coli MG1655; settings: G494S*; 5 h; FIG. 17A
# Protocol: as §2
# [12] = test system: G415H TynA with wild-type FeaR; format: cell-based, E. coli MG1655; settings: G415H TynA + wild-type FeaR, pCX008, pCX015
# Protocol: as §2
# [13] = test system: G494S TynA with wild-type FeaR; format: cell-based, E. coli MG1655; settings: G494S TynA, wild-type FeaR; 5 h and 24 h; FIG. 18A-B
# Protocol: as §2
# [14] = test system: wild-type TynA with W110C FeaR; format: cell-based, E. coli MG1655; settings: 24 h, FIG. 28D
# Protocol: as §2
# [15] = test system: wild-type TynA with A81T FeaR; format: cell-based, E. coli MG1655; settings: wild-type TynA; 1 mM, 24 h; FIG. 21
# Protocol: as §2
# [16] = test system: wild-type TynA with M83N FeaR; test: PtynA-GFP reporter, wild-type TynA with M83N FeaR (pCX073); format: cell-based, E. coli MG1655; settings: pCX008, pCX073, FIG. 6E, 24 h
# Protocol: as §2
# [17] = test system: wild-type TynA and A81L FeaR; test: microbe, parasite or virus in culture; format: cell-based, E. coli MG1655; settings: A81L FeaR; 5 h; FIG. 24
# Protocol: as §2
# [18] = test system: wild-type TynA with A81P FeaR; test: microbe, parasite or virus in culture; format: cell-based, E. coli MG1655; settings: A81P FeaR; 5 h and 24 h; FIG. 25A-B
# Protocol: as §2
# [19] = wild-type TynA and FeaR, pCX008, pHJY022, FIG. 3D, 24 h induction
# [20] = wild-type TynA and FeaR, pCX008, pHJY022, FIG. 14, 5 h induction
# [21] = wild-type TynA + M83Q FeaR, pCX008, pCX083
# [22] = wild-type TynA + W110S FeaR, pCX008, pCX116
# [23] = wild-type TynA + L108T FeaR, pCX008, pCX099
# [24] = wild-type TynA + W110C FeaR, pCX008, pCX117
smiles,measurement,setting,value
"N[C@@H](Cc1c[nH]c2ccc(O)cc12)C(=O)O [5-HTP, 5-hydroxytryptophan]",fold repression,[1],about 15 fold
same,fold repression,[2],about 7 fold
same,fold repression of GFP expression,[3],20 fold
"NCCc1ccc(O)cc1 [Tyramine, tyramine]",Concentration,[4],120 µM
same,response,"[5]; FeaR-KA I109N, 5 h and 24 h, FIG. 33A-B",lack of response
same,induction of fluorescence,"[5]; I109N variant, 0.5 mM, 24 h, FIG. 32",not
same,EC50,[6]; 5 h,37 µM
same,EC50,[6]; 24 h,77 µM
same,Fmin,[6]; [19],4.4
same,n (Hill coefficient),[6]; [19],5
same,Fmax,[6]; [20],311
same,Fmin,[6]; [20],10.6
same,n (Hill coefficient),[6]; [20],1.6
same,response,[7],lack of response
same,response,[8]; M83Q FeaR,lack of response
same,Fmax,[8]; [21],55
same,Fmin,[8]; [21],0.4
same,n (Hill coefficient),[8]; [21],8.4
same,response,[9]; W110S FeaR,lack of response
same,Fmax,[9]; [22],127
same,Fmin,[9]; [22],1.5
same,n (Hill coefficient),[9]; [22],9.8
same,response,[10]; L108T FeaR,lack of response
same,Fmax,[10]; [23],78
same,Fmin,[10]; [23],1.8
same,n (Hill coefficient),[10]; [23],1.6
same,response,[11],lack of response
same,Fmax,"[12]; FIG. 4D, 24 h",226
same,Fmin,"[12]; FIG. 4D, 24 h",0
same,n (Hill coefficient),"[12]; FIG. 4D, 24 h",0.9
same,Fmax,"[12]; FIG. 17B, 5 h",152
same,Fmin,"[12]; FIG. 17B, 5 h",0
same,n (Hill coefficient),"[12]; FIG. 17B, 5 h",0.8
same,response,[13],lack of response
same,response,[14]; W110C FeaR,lack of response
same,Fmax,[14]; [24],148
same,Fmin,[14]; [24],0.9
same,n (Hill coefficient),[14]; [24],9.7
same,effect of the A81T FeaR mutation on the response of the sensor,[15],insignificant impact
same,Fmax,[16],158
same,Fmin,[16],1.5
same,n (Hill coefficient),[16],12
same,response,[17],lack of response
same,response,[18],lack of response
